Measured values reported in publication PMC11979881, “Engineering Multifunctional Peptide-Decorated Nanofibers for Targeted Delivery of Temozolomide across the Blood–Brain Barrier” (Molecular Pharmaceutics, 2025).

Legend:
[1] = tested on: U-87 MG; experiment: PrestoBlue cell viability, 2D U-87; type: cell-based, human
Experimental: (§1) Glioblastoma/astrocytoma U-87 MG (U-87) and glioma U-118 MG (U-118) cell lines derived from the human brain were plated in 25 cm^2 flasks. They were grown individually in Dulbecco’s modified eagle’s medium high glucose (DMEM), supplemented with fetal bovine serum (FBS, 10%), penicillin/streptomycin (P/S, 100 U/mL), and L-glutamine (L/GLUT, 2 mM, Sigma-Aldrich), in a humidified incubator (37 °C, 5% CO2). At 70% confluence, cells were individually detached with a 0.25% solution of trypsin-EDTA.
(§2) For 2D experiments, U-118 and U-87 cells were seeded in 48-well plates, at approximately 20,000 cells per well in DMEM culture medium with 10% FBS, under standard cell culture conditions (5% CO2, 37 °C). Once the cells were attached, they were treated for 24, 48, and 72 h with 1) NF-TMZ carrying TMZ at different concentrations: 2.5, 5, 7.5, and 10 μM; 2) NF-t; 3) free TMZ at different concentrations (0, 10, 100, and 250 μM). […] At the end of the incubation time, a cell viability assay was performed using the PrestoBlue assay: the cells were incubated for 1 h according to the manufacturer’s protocol, and then absorbance was measured at 570 nm (with 600 nm as the reference wavelength) using a Bio-Tek Synergy HT Microplate reader.

[2] = cited from earlier work
From the text: GBM is the most aggressive type of brain cancer, with a 5-year survival rate of less than 5% and a median survival period of 12–15 months.[9],[10] The standard treatment, consisting of surgery followed by chemotherapy with temozolomide (TMZ) and radiation therapy, marginally improves survival.

[3] = tested on: 3D U-118; experiment: Annexin V-FITC/Propidium Iodide assay, 3D U-118; type: cell-based, human; settings: 3D U-118, 24 h, TMZ 10 μM
Experimental: (§3) To identify apoptotic and necrotic cells, Annexin V-FITC/Propidium Iodide (PI) assay was performed according to the manufacturer’s protocol. Annexin V highlights apoptotic cells by binding to phosphatidylserine (PS) on their membranes . Propidium Iodide (PI) binds to the DNA of necrotic cells, as it is not permeable to the cell membrane. Cells lose the membrane integrity, Annexin V-FITC/PI can enter the cells. After the 3D cell treatment, cells were stained with Annexin V-FITC/PI for 20 min in the dark. After washing with PBS, nuclei were labeled with 4′,6-diamidino-2-phenylindole (DAPI) for 5 min. Images of the 3D cells were acquired using the JuLi Stage_RealTime Cell History Recorder microscope with a 10x objective, using different channels: RFP, GFP, and DAPI. The images were corrected for brightness and contrast using Fiji software and analyzed to evaluate morphological parameters after treatments. For each experimental condition, three different assays were repeated.

[4] = tested on: 3D U-118; experiment: PrestoBlue viability on 3D dynamic in vitro BBB model, 3D U-118; type: cell-based, human; settings: 3D U-118 in lower chamber, injection into upper chamber, TMZ 10 μM, 72 h
Experimental: (§4) To evaluate the effects of NF-TMZ on fluid-dynamically cultured 3D GBM cells, we set up different bioreactors containing HBMEC and hPC-PL cells in the upper chamber and 3D U-118 cells or 3D U-87 cells in the lower chamber. NF-TMZ (10 μM), NF-t, and free TMZ (10 μM) were injected into the upper chamber, and their effects were evaluated after 72 h using the PrestoBlue viability assay. Briefly, 72 h after treatment, spheroids in the lower chamber were taken out and placed inside 48-well plates, and the PrestoBlue viability reagent (1:10) was added for 1.5 h. The absorbance was quantified using a Bio-Tek Synergy HT Microplate Reader. The control bioreactor was performed with HBMEC and hPC–PL cells in the upper chamber; and 3D U-118 MG cells and 3D U-87 MG cells in the lower chamber without treatment.

[5] = tested on: 3D U-87; experiment: Annexin V-FITC/Propidium Iodide assay, 3D U-87; type: cell-based, human; settings: TMZ 10 μM
Experimental: as §3

[6] = tested on: 3D U-87; experiment: PrestoBlue cell viability, 3D U-87 spheroids; type: cell-based, human; settings: 3D U-87, 10 μM TMZ, 72 h, treated every 24 h
Experimental: Once the appropriate concentration corresponding to the greatest lowering of cell viability was established, we proceeded with the 3D U-118 and 3D U-87 cell assays. To produce 3D U-118 and 3D U-87 cells, we used the hanging drop method. Briefly, 10,000 cells per drop were placed in the lid of a 100 mm dish, creating a hydration chamber by placing PBS in the dish bottom. After incubating for 48 h at 37 °C/5% CO2, the aggregates were transferred to a 48-well plate (5 spheroids per well: approximately 50,000 cells/well). The 3D cells were treated every 24 h for 3 days. Each treatment was conducted on 10 spheroids: approximately 100,000 cells for each experimental class: 1) control; 2) NF-t; 3) NF-TMZ (10 μM); 4) free TMZ (10 μM). At the end of the incubation time, a cell viability assay was performed with using the PrestoBlue assay: the cells were incubated for 90 min, according to the manufacturer’s protocol. At the end of the incubation time, we measured the absorbance at 570 nm (with 600 nm as the reference wavelength) using a Bio-Tek Synergy HT Microplate reader.

[7] = tested on: U87 MG spheroids; experiment: Spheroid shape descriptors (Fiji), U87 MG; type: cell-based, human
Experimental: as §3
(§5) To evaluate shape descriptors, 10 spheroids for each formulation were imaged and analyzed by Fiji software (Table 4).
(§6) Table 4 was obtained using Fiji software, for U-118 and U-87 spheroids treated with NF-TMZ, free TMZ, and NF-t, compared with controls (no treatment), ***p < 0.001. Circularity was calculated as [drawing 3] . Values of 1.0 indicate a perfect circle; while as the value approaches 0.0, it indicates an increasingly elongated shape. Feret’s diameter was the maximum caliper of the object, also known as the longest distance between any two points along the selection boundary. The minimum caliper diameter is indicated as Min Feret. The aspect ratio of the particle’s fitted ellipse was calculated as [drawing 4] and is indicated as AR. Roundness was calculated as 4 [drawing 5] and is the inverse of AR. Shape descriptors describe the eventual changes in spheroid morphology following treatment.

[8] = tested on: U-118 MG; experiment: PrestoBlue cell viability, 2D U-118; type: cell-based, human
Experimental: as §1, §2

[9] = tested on: human brain microvascular endothelial cells (HBMEC); experiment: PrestoBlue cell viability, HBMEC; type: cell-based; settings: treated every 24 h for 3 days, TMZ 10 μM
Experimental: To verify whether NF-t or NF-TMZ influenced healthy brain endothelial cells constitutively expressing EGFRs, the experiment described above was conducted on human brain microvascular endothelial cells (HBMEC) and brain endothelial cells (bEnd.3) to assess their effects . Cells were seeded in a 96-well plate (15,000 cells per well) in their appropriate culture medium. After 24 h, cells were treated likewise with U-118 and U-87 cells with 10 μM TMZ, both conjugated and unconjugated with NF-t. The control was performed on cells cultured only in the medium. Under the same conditions as for 2D cells, the PrestoBlue assay was performed. […] TMZ release from NF-TMZ was evaluated using matrix metalloproteinase-9 (MMP-9). In particular, NF-TMZ was prepared as reported before and hydrated in the following buffer solution: 50 mM HEPES, 200 mM NaCl, 10 mM CaCl2, and 1 mM ZnCl2, at pH 7. The MMP-9 was preactivated with APMA 100 μM and Tris-HCl 50 mM (pH 7.2) and was left at 37 °C for 3 h.[33],[35] Once activated, MMP-9 was added to NF-TMZ and the culture medium at a final concentration of 40 nM; and cells were incubated for 72 h.

[10] = tested on: U118 MG spheroids; experiment: Spheroid shape descriptors (Fiji), U118 MG; type: cell-based, human
Experimental: as §3, §5, §6

[11] = tested on: 3D U-87; experiment: PrestoBlue viability on 3D dynamic in vitro BBB model, 3D U-87; type: cell-based, human; settings: 3D U-87 in lower chamber, injection into upper chamber, TMZ 10 μM, 72 h
Experimental: as §4

[12] = tested on: U-118 MG; settings: U-118, 72 h, same experimental conditions; cited from earlier work
Experimental: In 2D experiments, we observed a remarkable effect on U-118 cells with all nanofibers carrying TMZ at different concentrations, which increased proportionally with the concentration. In particular, treatment with NF-TMZ (carrying TMZ at a concentration of 10 μM) caused a decrease in cell viability at 72 h by more than 40%, whereas a similar decrease (under the same experimental conditions) is reported in the literature with a TMZ concentration of 100 μM.[41] U-87 cells responded less to the treatment, but we still observed a reduction in cell viability of 30%. Indeed, the experiments performed ...

[13] = U87 MG spheroids, 10 spheroids per formulation, Fiji
[14] = U118 MG spheroids, 10 spheroids per formulation, Fiji, ***p < 0.001 vs controls

Cn1nnc2c(C(N)=O)ncn2c1=O [TMZ, temozolomide]
free TMZ concentration giving a similar effect as NF-TMZ (TMZ 10 μM) ([1]; 2D U-87): 100 to 250 µM | concentrations at which TMZ acted on cell survival ([1]; 2D U-87, 24- and 48-h treatments): ≥ 100 µM | extravasation from blood to brain [2]: ~20% | plasma half-life [2]: 2 h | water solubility [2]: poor water solubility | apoptotic cells (Annexin V) [3]: initial burst of apoptosis | lower viability compared with the control [4]: < 20% | apoptotic cells (Annexin V) compared to the control ([5]; 3D U-87, 24 h): four-time increasing level | necrotic cells (PI) ([5]; 3D U-87, 48 h): increase in necrotic cells | decrease in viability compared to the control [6]: 55% | spheroid surface area compared to control and NF-t ([7]; 3D U-87): significantly lower | Circularity [7, 13]: 0.280 | Feret’s diameter [7, 13]: 841.910 | Min Feret [7, 13]: 612.895 | AR ([7]; U87 MG spheroids, aspect ratio of fitted ellipse, Fiji): 1.404 | Round ([7]; U87 MG spheroids, roundness, Fiji): 0.732 | free TMZ concentration giving a similar effect as NF-TMZ (TMZ 10 μM) [8]: 100 to 250 µM | cell viability versus control [9]: no significant difference | spheroid surface area compared to control and NF-t ([10]; 3D U-118): significantly lower | Circularity ([10]; U118 MG spheroids, 10 spheroids per formulation, Fiji): 0.425 | Feret’s diameter [10, 14]: 512.096 | Min Feret [10, 14]: 397.785 | AR ([10]; U118 MG spheroids, aspect ratio of fitted ellipse, Fiji): 1.298 | Round ([10]; U118 MG spheroids, roundness, Fiji): 0.802 | lower viability compared with the control [11]: 13% | TMZ concentration reported for a similar decrease in cell viability [12]: 100 µM
